Reference: US6180634A, “Combination therapy for the treatment of AIDS” (priority 1998, dated 2001)
Like-named read-outs stand apart in the source and are kept apart here.

Assays:
[1] = administration to humans, plasma concentrations (general statements); format: in vivo, human
Excerpt: Compound (b) is preferably selected from the group consisting of Indinavir, Ritonavir, and pharmaceutically acceptable salts thereof, and is most preferably Indinavir or a pharmaceutically acceptable salt or ester thereof. Particularly preferred is the composition in which (a) is the sulfate salt of Compound A and (b) is the sulfate salt of Indinavir. It has been discovered that the foregoing compounds of (b), when employed in combination with Compound A, can increase the plasma concentration of Compound A to a level having substantial antiviral activity.

[2] = Pharmacokinetic Study in Healthy Human Males of Compound A in Combination with Indinavir with and without Fasting (Example 12); format: in vivo; conditions: co-administered with Indinavir, with food vs without food
Method: All of the subjects received the regimen once in the fasted state and once with a high-fat breakfast. The two single-dose treatments (fasted, fed) were administered in randomized crossover fashion, separated by one week. For treatments with food a breakfast consisting of two eggs, two strips of bacon, toast with two pats of butter (2×12.5 g), 120 g of fried potatoes and 240 ml of whole milk were consumed in no more than 15 minutes, and the test medication was administered within 5 minutes after completion of the breakfast.
All of the doses of Compound A were administered as the sulfate salt form of Compound A. All of the Compound A doses were tablets containing 200 mg of Compound A. Other ingredients in the tablets included microcrystalline cellulose (Avicel PH 101), mannitol SD 200, croscarmellose sodium, hydroxypropyl cellulose and magnesium stearate. […]
(§1) The safety of the subjects was monitored prior and subsequent to dosing by clinical adverse event reporting, measurement of vital signs, physical examinations, blood and urine laboratory safety tests, and ECGs. Plasma concentrations of Compound A were determined predose and at 0.5, 1, 1.5, 2, 3, 4, 6, 8, 12, 16, 20, 24, 30, 36 and 48 hours following each single dose in each period, using a reverse-phase HPLC column switching method with fluorescence detection.

wild-type HIV-1 = test: microbe, parasite or virus in culture; format: cell-based
[3] = Pharmacokinetic Study of Compound A in Healthy Human Males (Example 10); format: in vivo; conditions: 20 mg single oral dose, suspension, fasted
Method: A double-blind, single-rising dose, alternating two-panel, four-period, placebo-controlled study was conducted for Compound A in healthy adult males in the fasted state. Single doses of 20, 50, 100, 200, 400, 800 and 1200 mg of Compound A, or placebo, were administered as an oral suspension of the sulfate salt form of Compound A in sterile water. Each subject received increasing single oral doses of Compound A or placebo during each of the four treatment periods in alternate panels. Panel A dosage levels were 20, 100, 400 mg, and 400 mg with food. Panel B dosage levels were 50, 200, 800 and 1200 mg. For each period, 6 subjects received Compound A and 2 subjects received placebo as allocated by a randomized schedule. In Panel A, subjects who received 400 mg of Compound A also received 400 mg of Compound A with food. The safety of the subjects was monitored prior and subsequent to dosing by clinical adverse event reporting, measurement of vital signs, physical examinations, blood and urine laboratory safety tests, and ECGs. Plasma concentrations of Compound A were determined predose and at 0.5, 1, 1.5, 2, 3, 4, 6, 10, 12, 24, 32 and 48 hours following each single dose in each period, using a reverse-phase HPLC column switching method with fluorescence detection.

[4] = Pharmacokinetic Study of Compound A Alone and in Combination with Indinavir in Healthy Human Males (Example 11); format: in vivo
Method: as §1, with “A double-blind, single-rising dose, alternating two-panel, four-period, placebo-controlled study was conducted for Compound A alone and in combination with Indinavir in healthy adult males in the fasted state. […] All of the doses of Compound A were administered as the sulfate salt form of Compound A. All of the Compound A doses were oral suspensions of the sulfate salt form in sterile water, except that the 600-mg doses administered to Panel B in the fourth period were tablets. Indinavir was administered in the form of CRIXIVAN® capsules. The” for “The”

[5] = Compound A in combination with Indinavir
[6] = 200 mg Compound A + 800 mg Indinavir relative to 200 mg Compound A alone

inter-individual variation in the plasma levels ([1]; humans, Compound A alone, vs Indinavir) | plasma concentrations of Compound A ([1]; humans, relative to comparable doses of Indinavir) | Compound A plasma levels, fed versus fasted [2] | plasma concentrations [3] | AUC increase (times higher) [4, 6] | C8 hrs increase (times higher) [4, 6] [×] | Cmax increase (times higher) [4, 6] | AUC increase (fold higher) ([4]; 600 mg Compound A + 800 mg Indinavir relative to Compound A alone) | Compound | effect of Indinavir on inter-individual variation of Compound A plasma concentrations [1, 5] | effect of Indinavir on plasma concentrations of Compound A [1, 5] | plasma concentration increase with successively higher doses ([1]; humans, dose proportionality) | IC95 (wild-type HIV-1; Human immunodeficiency virus 1, wild-type HIV-1, Cell Spread Assay, read-out: CIC95) [nM] | potency relative to Indinavir (wild-type HIV-1; wild type HIV-1, in vitro) | IC95 (wild-type HIV-1; Human immunodeficiency virus 1, read-out: CIC95) [nM]
significant inter-individual variation | very low plasma concentrations | higher Compound A plasma levels | below the assay quantification limit | about 30 × | ~46 | about 19 × | about 18 fold | CC(C)(C)NC(=O)[C@@H]1CN(Cc2cc3ccccc3o2)CCN1C[C@@H](O)C[C@@H](Cc1ccccc1)C(=O)N[C@H]1c2ccccc2C[C@H]1O [Compound A, N-(2(R)-hydroxy-1(S)-indanyl)-2(R)-phenylmethyl-4-(S)-hydroxy-5-(1-(4-(2-benzo[b]furanylmethyl)-2(S)-N'-(t-butylcarboxamido)-piperazinyl))-pentaneamide] | markedly reduces inter-individual variation | substantially increase the plasma concentrations | greater than proportional increases in plasma concentrations | 25 | approximately two-fold greater potency than Indinavir | –
– | – | – | – | – | – | – | – | CC(C)(C)NC(=O)[C@@H]1CN(Cc2cccnc2)CCN1C[C@@H](O)C[C@@H](Cc1ccccc1)C(=O)N[C@H]1c2ccccc2C[C@H]1O [Indinavir, N-(2(R)-hydroxy-1(S)-indanyl)2(R)-phenylmethyl-4-(S)-hydroxy-5-(1-(4-(3-pyridylmethyl)-2(S)-N'-(t-butylcarboxamido)-piperazinyl))-pentaneamide, reference compound] | – | – | – | – | – | 50
